In patent publication US11072598B2, “Somatostatin modulators and uses thereof” (CRINETICS PHARMACEUTICALS, INC., priority 2017, dated 2021):

Tests used:
[1] = target: T1, human somatostatin receptor subtype 2 (Homo sapiens, UniProt P30874); assay: cAMP functional assay for SSTR2 agonists; format: cell-based; details: inhibition of cAMP activities via human SST2 receptor (SSTR2), CHO-K1 cells; read-out: EC50
T1 construct: expressed in transfected cells
How it was run: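 CHO-K1 cells stably expressing human SSTR2 were treated for 20 min at 37 °C with compound plus NKH477 (added as 1.6 μM) in HBSS with IBMX. Intracellular cAMP was measured by HTRF against a standard curve. EC50 values came from concentration-response curves.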

[2] = target: T2, hSSTR4 (Homo sapiens, UniProt P31391); assay: inhibition of cAMP via hSSTR4; format: cell-based; details: selectivity for inhibition of cAMP via hSSTR2 vs. hSSTR4
T2 construct: expressed in transfected cells
Source text: General overview: All five SSTR subtypes are Gi coupled G-protein coupled receptors (GPCRs) that lead to decreases in intracellular cyclic AMP (cAMP) when activated by an agonist. Therefore, measurement of intracellular cAMP levels can be used to assess whether compounds of the invention are agonists of SSTR subtypes (John Kelly, Troy Stevens, W. Joseph Thompson, and Roland Seifert, Current Protocols in Pharmacology, 2005, 2.2.1-2.2). One example of an intracellular cAMP assay is described below. cAMP assay protocol:
Four days prior to the assay, 5,000 Chinese hamster ovary cells (CHO-K1, ATCC #CCL-61) stably expressing the human somatostatin receptor subtype 2 are plated in each well of a 96-well tissue culture-treated plate in Ham's F12 growth media (ThermoFisher #10-080-CM) supplemented with 10% donor bovine serum (Gemini Bio-Products #100-506), 100 U/mL penicillin; 100 ug/mL streptomycin; 2 mM L-glutamine (Gemini Bio-Products #400-110) and 0.2 mg/mL hygromycin B (GoldBio #31282-04-9). The cells are cultured at 37° C., 5% CO2 and 95% humidity. On the day of the assay, the media is aspirated and the cells are treated with 50 μL of 1.6 μM NKH477 (Sigma #N3290) plus various dilutions of compounds of the invention in assay buffer [1× Hank's Balanced Salt Solution (ThermoFisher #SH3058802), 0.5 mM HEPES pH 7.4, 0.1% bovine serum albumin, 0.2 mM 3-Isobutyl-1-methylxanthine (IBMX, VWR #200002-790)]. The cells are incubated for 20 minutes at 37° C. (the final concentration of the compounds of the invention are typically 0-10,000 nM). The cells are treated with 50 μL of lysis buffer (HRTF cAMP kit, Cisbio). The lysate is transferred to 384-well plates and cAMP detection and visualization antibodies are added and incubated for 1-24 hours at room temperature. The time-resolved fluorescent signal is read with a Tecan M1000Pro multiplate reader. The intracellular cAMP concentrations are calculated by regression to a standard curve and are plotted vs. the concentration of the compounds of the invention and the EC50 of the compounds are calculated using standard methods. All data manipluations are in GraphPad Prism v6.

T2 sequence (P31391 whole entry): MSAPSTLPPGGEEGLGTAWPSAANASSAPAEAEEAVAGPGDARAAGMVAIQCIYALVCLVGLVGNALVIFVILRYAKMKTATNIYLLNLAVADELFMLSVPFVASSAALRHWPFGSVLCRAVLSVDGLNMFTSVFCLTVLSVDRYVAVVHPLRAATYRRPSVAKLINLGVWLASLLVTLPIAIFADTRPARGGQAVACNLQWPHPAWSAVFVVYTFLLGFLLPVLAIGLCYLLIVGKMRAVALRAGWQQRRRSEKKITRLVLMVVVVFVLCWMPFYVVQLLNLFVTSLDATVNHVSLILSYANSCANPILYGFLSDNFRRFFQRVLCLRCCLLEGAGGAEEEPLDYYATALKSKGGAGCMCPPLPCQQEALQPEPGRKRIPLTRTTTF
T1 sequence (P30874 whole entry): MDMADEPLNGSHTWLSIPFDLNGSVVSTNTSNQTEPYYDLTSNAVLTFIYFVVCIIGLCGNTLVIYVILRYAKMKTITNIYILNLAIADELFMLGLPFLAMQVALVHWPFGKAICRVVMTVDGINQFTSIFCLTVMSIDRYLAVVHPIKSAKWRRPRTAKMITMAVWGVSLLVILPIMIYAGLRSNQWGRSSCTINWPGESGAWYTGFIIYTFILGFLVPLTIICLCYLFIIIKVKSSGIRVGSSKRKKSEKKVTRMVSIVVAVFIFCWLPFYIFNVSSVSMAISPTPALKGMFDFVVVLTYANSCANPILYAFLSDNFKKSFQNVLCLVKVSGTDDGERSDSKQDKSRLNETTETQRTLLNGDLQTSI

Structure (SMILES) | EC50 [1] [nM] | hSST4/hSST2 (ratio) [2]
CCNc1ncc(-c2cc(C)cc(F)c2)c(N2CCC(N)CC2)c1-c1nc2cc(F)cc(F)c2[nH]1 [Compound 1-49, 4-(4-aminopiperidin-1-yl)-3-(5,7-difluoro-1H-1,3-benzodiazol-2-yl)-N-ethyl-5-(3-fluoro-5-methylphenyl)pyridin-2-amine] | < 10 | a (above 50)
CCNc1ncc(-c2cc(C)cc(F)c2)c(N2CCC(N)CC2)c1-c1nc2cc(F)c(F)cc2[nH]1 [Compound 1-50, 4-(4-aminopiperidin-1-yl)-3-(5,6-difluoro-1H-1,3-benzodiazol-2-yl)-N-ethyl-5-(3-fluoro-5-methylphenyl)pyridin-2-amine] | < 10 | a (above 50)
COCCNc1ncc(-c2cc(C)cc(F)c2)c(N2CCC(N)CC2)c1-c1nc2c(F)cc(F)cc2[nH]1 [Compound 1-56] | < 10 | a (above 50)
Cc1cc(F)cc(-c2cnc(N)c(-c3nc4cc(F)c(F)cc4n3C)c2N2CCC(N)CC2)c1 [Compound 1-57, 4-(4-aminopiperidin-1-yl)-3-(5,6-difluoro-1-methyl-1H-1,3-benzodiazol-2-yl)-5-(3-fluoro-5-methylphenyl)pyridin-2-amine] | < 10 | a (above 50)
COc1cc(F)cc2[nH]c(-c3c(N)ncc(-c4cc(C)cc(F)c4)c3N3CCC(N)CC3)nc12 [Compound 1-58, 4-(4-aminopiperidin-1-yl)-3-(6-fluoro-4-methoxy-1H-1,3-benzodiazol-2-yl)-5-(3-fluoro-5-methylphenyl)pyridin-2-amine] | < 10 | c (between 2.5 and 15)
Cc1cc(F)cc(-c2cnc(N)c(-c3nc4cc(F)cc(OCC#N)c4[nH]3)c2N2CCC(N)CC2)c1 [Compound 1-74, 2-({2-[2-amino-4-(4-aminopiperidin-1-yl)-5-(3-fluoro-5-methylphenyl)pyridin-3-yl]-5-fluoro-1H-1,3-benzodiazol-7-yl}oxy)acetonitrile] | < 10 | c (between 2.5 and 15)
COc1cc(F)cc2nc(-c3c(C)ncc(-c4cc(C)cc(F)c4)c3N3CCC(N)CC3)[nH]c12 [Compound 2-15, 1-[3-(5-fluoro-7-methoxy-1H-1,3-benzodiazol-2-yl)-5-(3-fluoro-5-methylphenyl)-2-methylpyridin-4-yl]piperidin-4-amine] | < 10 | c (between 2.5 and 15)
COc1cc(F)cc2nc(-c3c(N(C)C)ncc(-c4cc(C)cc(F)c4)c3N3CCC(N)CC3)[nH]c12 [Compound 4-6, 4-(4-aminopiperidin-1-yl)-3-(5-fluoro-7-methoxy-1H-1,3-benzodiazol-2-yl)-5-(3-fluoro-5-methylphenyl)-N,N-dimethylpyridin-2-amine] | < 10 | b (between 15 and 50)
COc1cc(F)cc2nc(-c3c(N4CC(F)C4)ncc(-c4cc(C)cc(F)c4)c3N3CCC(N)CC3)[nH]c12 [Compound 4-7, 1-[3-(5-fluoro-7-methoxy-1H-1,3-benzodiazol-2-yl)-5-(3-fluoro-5-methylphenyl)-2-(3-fluoroazetidin-1-yl)pyridin-4-yl]piperidin-4-amine] | < 10 | a (above 50)
Cc1cc(F)cc(-c2cnc(N3CCOCC3)c(-c3nc4cc(F)cc(F)c4[nH]3)c2N2CCC(N)CC2)c1 [Compound 4-8, 1-[3-(5,7-difluoro-1H-1,3-benzodiazol-2-yl)-5-(3-fluoro-5-methylphenyl)-2-(morpholin-4-yl)pyridin-4-yl]piperidin-4-amine] | < 10 | a (above 50)

Continued, values first:

EC50 [1] [nM] | hSST4/hSST2 (ratio) [2] | Structure (SMILES)
< 10 | a (above 50) | Cc1cc(F)cc(-c2cnc(N)c(-c3nc4cc(OC(F)(F)F)ccc4[nH]3)c2N2CCC(N)CC2)c1 [Compound 1-14, 4-(4-aminopiperidin-1-yl)-5-(3-fluoro-5-methylphenyl)-3-[5-(trifluoromethoxy)-1H-1,3-benzodiazol-2-yl]pyridin-2-amine]
< 10 | a (above 50) | CNc1ncc(-c2cc(C)cc(F)c2)c(N2CCC(N)CC2)c1-c1nc2cc(Cl)ccc2[nH]1 [Compound 1-28, 4-(4-aminopiperidin-1-yl)-3-(5-chloro-1H-1,3-benzodiazol-2-yl)-5-(3-fluoro-5-methylphenyl)-N-methylpyridin-2-amine]
< 10 | a (above 50) | CCNc1ncc(-c2cc(C)cc(F)c2)c(N2CCC(N)CC2)c1-c1nc2cc(Cl)ccc2[nH]1 [Compound 1-30, 4-(4-aminopiperidin-1-yl)-3-(5-chloro-1H-1,3-benzodiazol-2-yl)-N-ethyl-5-(3-fluoro-5-methylphenyl)pyridin-2-amine]
< 10 | a (above 50) | Cc1cc(F)cc(-c2cnc(N)c(-c3nc4cc(Cl)cc(F)c4[nH]3)c2N2CCC(N)CC2)c1 [Compound 1-54, 4-(4-aminopiperidin-1-yl)-3-(5-chloro-7-fluoro-1H-1,3-benzodiazol-2-yl)-5-(3-fluoro-5-methylphenyl)pyridin-2-amine]
< 10 | a (above 50) | CNc1ncc(-c2cc(C)cc(F)c2)c(N2CCC(N)CC2)c1-c1nc2cc(F)c(F)cc2[nH]1 [Compound 1-55, 4-(4-aminopiperidin-1-yl)-3-(5,6-difluoro-1H-1,3-benzodiazol-2-yl)-5-(3-fluoro-5-methylphenyl)-N-methylpyridin-2-amine]
< 10 | b (between 15 and 50) | COc1cc(F)c2nc(-c3c(N)ncc(-c4cc(C)cc(F)c4)c3N3CCC(N)CC3)[nH]c2c1 [Compound 1-59, 4-(4-aminopiperidin-1-yl)-5-(3-fluoro-5-methylphenyl)-3-(4-fluoro-6-methoxy-1H-1,3-benzodiazol-2-yl)pyridin-2-amine]
< 10 | c (between 2.5 and 15) | CNc1ncc(-c2cc(C)cc(F)c2)c(N2CCC(N)CC2)c1-c1nc2cccc(OC)c2[nH]1 [Compound 1-71, 4-(4-aminopiperidin-1-yl)-5-(3-fluoro-5-methylphenyl)-3-(7-methoxy-1H-1,3-benzodiazol-2-yl)-N-methylpyridin-2-amine]
< 10 | a (above 50) | CNc1ncc(-c2cc(C)cc(F)c2)c(N2CCC(N)CC2)c1-c1nc2cc(Cl)cc(F)c2[nH]1 [Compound 1-75, 4-(4-aminopiperidin-1-yl)-3-(5-chloro-7-fluoro-1H-1,3-benzodiazol-2-yl)-5-(3-fluoro-5-methylphenyl)-N-methylpyridin-2-amine]
< 10 | a (above 50) | COc1ncc(-c2cc(C)cc(F)c2)c(N2CCC(N)CC2)c1-c1nc2cc(F)ccc2[nH]1 [Compound 2-1, 1-[3-(5-fluoro-1H-1,3-benzodiazol-2-yl)-5-(3-fluoro-5-methylphenyl)-2-methoxypyridin-4-yl]piperidin-4-amine]
< 10 | a (above 50) | COc1ncc(-c2cc(C)cc(F)c2)c(N2CCC(N)CC2)c1-c1nc2cc(Cl)ccc2[nH]1 [Compound 2-2, 1-[3-(5-chloro-1H-1,3-benzodiazol-2-yl)-5-(3-fluoro-5-methylphenyl)-2-methoxypyridin-4-yl]piperidin-4-amine]
< 10 | a (above 50) | COc1ccc2[nH]c(-c3c(OC)ncc(-c4cc(C)cc(F)c4)c3N3CCC(N)CC3)nc2c1 [Compound 2-3, 1-[5-(3-fluoro-5-methylphenyl)-2-methoxy-3-(5-methoxy-1H-1,3-benzodiazol-2-yl)pyridin-4-yl]piperidin-4-amine]
< 10 | a (above 50) | COc1ncc(-c2cc(C)cc(F)c2)c(N2CCC(N)CC2)c1-c1nc2cc(F)cc(F)c2[nH]1 [Compound 2-5, 1-[3-(5,7-difluoro-1H-1,3-benzodiazol-2-yl)-5-(3-fluoro-5-methylphenyl)-2-methoxypyridin-4-yl]piperidin-4-amine]
